Assays:
[1] = target: T1, Nox2 (Homo sapiens, UniProt P04839); experiment: ROS (H2O2) generation in whole COS-Nox2 cells, Amplex Red assay; format: cell-based
T1 construct: expressed in transfected cells
T1 sequence (P04839 2-570 limits assumed): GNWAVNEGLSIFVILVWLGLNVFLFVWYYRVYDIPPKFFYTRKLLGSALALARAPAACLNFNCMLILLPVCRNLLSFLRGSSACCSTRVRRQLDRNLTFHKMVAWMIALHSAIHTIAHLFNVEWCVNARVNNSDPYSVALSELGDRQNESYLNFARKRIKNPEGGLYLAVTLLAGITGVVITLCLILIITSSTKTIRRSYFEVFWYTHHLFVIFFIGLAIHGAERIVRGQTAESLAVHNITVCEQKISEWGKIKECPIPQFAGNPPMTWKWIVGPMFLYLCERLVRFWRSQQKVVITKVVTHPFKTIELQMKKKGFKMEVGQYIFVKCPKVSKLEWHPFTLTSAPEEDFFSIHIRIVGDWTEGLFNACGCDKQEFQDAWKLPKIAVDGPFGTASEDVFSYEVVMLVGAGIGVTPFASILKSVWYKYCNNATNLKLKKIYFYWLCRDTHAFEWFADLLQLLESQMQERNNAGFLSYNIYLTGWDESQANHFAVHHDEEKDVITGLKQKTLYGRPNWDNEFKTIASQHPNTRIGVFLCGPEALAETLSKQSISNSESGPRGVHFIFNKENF
Source text: (§1) All cell culture reagents were obtained from Invitrogen, unless indicated. COS-22 (COS-7 cells stably expressing human p22^phox) and COS-Nox2 (a.k.a. COS-phox) cells (COS-7 cells stably expressing human p22^phox, Nox2, p47^phox and p67^phox) were kindly provided by Dr. Mary C. Dinauer (Indiana University, School of Medicine) (Price et al., Blood, 2002, 99:2653-2661). COS-22 cells were maintained in Dulbecco's Modified Eagle Medium (DMEM) with 4.5 g/L glucose, L-glutamine and sodium pyruvate containing 10% heat-inactivated fetal bovine serum (FBS), 100 units/ml penicillin and 100 μg/ml streptomycin (complete media) supplemented with 1.8 mg/ml G418 (Calbiochem/EMB Bioscience, Gibbstown, N.J.). COS-Nox2 cells were maintained in complete media supplemented with 1.8 mg/mL G418, 1 μg/mL puromycin (Sigma, St Louis, Mo.) and 0.2 mg/mL hygromycin B (Invitrogen, Carlsbad, Calif.). HEK-Nox5 cells were kindly provided by Dr. David Fulton (Georgia Health Sciences University) and maintained in complete media.
H2O2 production was quantified in intact COS-Nox4 cells by Amplex® Red. Briefly, COS-Nox4 cells (5×10^4 cells/ml) were re-plated into 384-well plate in assay buffer (25 mM Hepes, pH 7.4, containing 0.12 M NaCl, 3 mM KCl, 1 mM MgCl2). The cells were incubated in the presence or absence of drugs at 37° C. in assay buffer supplemented with 0.1 mM Amplex® Red, and 0.32 U/ml of horse radish peroxidase (HRP) for 15 min. Fluorescence measurements were made using a Biotek Synergy 4 Hybrid Multi-Mode Microplate Reader with a 530/25-excitation and a 590/35-emission filter. The reaction was monitored at 37° C. for 1 h. A standard curve of known H2O2 concentrations was included on each plate. Nox4 activity was obtained by calculating the rate of H2O2 production as RFU/min and then subtracting the equivalent value given by non-transfected COS-22 cells. Similarly, H2O2 production by Nox2 cells was also measured by Amplex® Red as described above but in the presence of 150 U/mL of SOD and the reaction was initiated by addition of 5 μM PMA. The rate of H2O2 production in this case was calculated as RFU/min after the subtraction of the equivalent value given by non-stimulated cells. Data are expressed as % of vehicle control.
(§2) All data are expressed as means±SEM. IC50 values were determined using the GraphPad Prism software (GraphPad Software, San Diego, Calif.) for non-linear regression three-parameters, with constrain values of 100 and 0 for top and bottom, respectively, and assumes a Hill slope of 1.

[2] = target: T1, Nox2; experiment: ROS (superoxide) generation in whole COS-Nox2 cells, L-012 chemiluminescence; format: cell-based; conditions: whole COS-Nox2 cells stimulated with 5 μM PMA
Source text: as §1
COS-Nox2, COS-Nox1/NOXO1/NOXA1, HEK-Nox5 and COS-22 cells were re-plated in OPTIMEM into 384-well white micro-plates (Greiner-Bio One GmbH, Germany) at a density of 2.5×10^3 cells/well for COS-Nox2 and 5×10^4 cells/well for all others. The cells were incubated at 37° C. in PBS containing […] L-012 for 10 min. Reaction was initiated by addition of 5 μM PMA in the case of Nox2 or 1 μM PMA/0.1 μM Ionomycin in the case of Nox5. Since Nox1 was constitutively active, Nox1-derived O2^•− was assessed by comparison to non-transfected cells (Cos22). Luminescence was quantified over time using a Biotek Synergy 4 Hybrid Multi-Mode Microplate Reader. The specificity of L-012 for O2^•− was confirmed by the addition of SOD (150 U/mL).
as §2
Heterologous Nox1, 2, 4, and 5 cell systems were used as a testing paradigm to identify a probe molecule that inhibits Nox2 selectively over Nox1, 4, and 5. An acceptable probe would also show a lack of activity against XO, which also produces ROS. The latter screen would serve two purposes: (1) to eliminate drugs that inhibit an oxidase of distinct composition; and (2) to preclude agents that directly scavenge ROS. A cell-based primary assay using stable Nox2-transfected COS cells (Price et al., Blood 2002, 99:2653-2661) with L-012 chemiluminescence (Daiber et al., Free Radic. Biol. Med. 2004, 36:101-111) was used as a detection system for O2^•−-generation.

[3] = target: T2, Bovine milk XO (Bos taurus, UniProt P80457); experiment: Xanthine oxidase assay (Amplex Red); format: biochemical; conditions: compounds at 25 μM and 50 μM (FIG. 4)
T2 construct: Bovine milk XO (grade 1, ammonium sulfate suspension; Sigma-Aldrich); purchased Sigma-Aldrich; host or cells: bovine milk
Protocol: Bovine milk XO (grade 1, ammonium sulfate suspension; Sigma-Aldrich) was first desalted using PD-10 columns (Sephadex G-25, GE Healthcare Biosciences, Piscataway, N.J.) equilibrated in PBS. XO activity was assayed by measuring H2O2 production using the Amplex® Red assay. Reaction mixture contained: 0.02 U/mL XO, 25 mM Hepes, pH 7.4, containing 0.12 M NaCl, 3 mM KCl, 1 mM MgCl2, 0.1 mM Amplex® Red, and 0.32 U/mL of horse radish peroxidase (HRP), reaction was initiated by addition of 1 mM hypoxanthine. Fluorescence was quantified over time using a Biotek Synergy 4 Hybrid Multi-Mode Microplate Reader.
Data are expressed as % of vehicle control.

T2 sequence (P80457 whole entry): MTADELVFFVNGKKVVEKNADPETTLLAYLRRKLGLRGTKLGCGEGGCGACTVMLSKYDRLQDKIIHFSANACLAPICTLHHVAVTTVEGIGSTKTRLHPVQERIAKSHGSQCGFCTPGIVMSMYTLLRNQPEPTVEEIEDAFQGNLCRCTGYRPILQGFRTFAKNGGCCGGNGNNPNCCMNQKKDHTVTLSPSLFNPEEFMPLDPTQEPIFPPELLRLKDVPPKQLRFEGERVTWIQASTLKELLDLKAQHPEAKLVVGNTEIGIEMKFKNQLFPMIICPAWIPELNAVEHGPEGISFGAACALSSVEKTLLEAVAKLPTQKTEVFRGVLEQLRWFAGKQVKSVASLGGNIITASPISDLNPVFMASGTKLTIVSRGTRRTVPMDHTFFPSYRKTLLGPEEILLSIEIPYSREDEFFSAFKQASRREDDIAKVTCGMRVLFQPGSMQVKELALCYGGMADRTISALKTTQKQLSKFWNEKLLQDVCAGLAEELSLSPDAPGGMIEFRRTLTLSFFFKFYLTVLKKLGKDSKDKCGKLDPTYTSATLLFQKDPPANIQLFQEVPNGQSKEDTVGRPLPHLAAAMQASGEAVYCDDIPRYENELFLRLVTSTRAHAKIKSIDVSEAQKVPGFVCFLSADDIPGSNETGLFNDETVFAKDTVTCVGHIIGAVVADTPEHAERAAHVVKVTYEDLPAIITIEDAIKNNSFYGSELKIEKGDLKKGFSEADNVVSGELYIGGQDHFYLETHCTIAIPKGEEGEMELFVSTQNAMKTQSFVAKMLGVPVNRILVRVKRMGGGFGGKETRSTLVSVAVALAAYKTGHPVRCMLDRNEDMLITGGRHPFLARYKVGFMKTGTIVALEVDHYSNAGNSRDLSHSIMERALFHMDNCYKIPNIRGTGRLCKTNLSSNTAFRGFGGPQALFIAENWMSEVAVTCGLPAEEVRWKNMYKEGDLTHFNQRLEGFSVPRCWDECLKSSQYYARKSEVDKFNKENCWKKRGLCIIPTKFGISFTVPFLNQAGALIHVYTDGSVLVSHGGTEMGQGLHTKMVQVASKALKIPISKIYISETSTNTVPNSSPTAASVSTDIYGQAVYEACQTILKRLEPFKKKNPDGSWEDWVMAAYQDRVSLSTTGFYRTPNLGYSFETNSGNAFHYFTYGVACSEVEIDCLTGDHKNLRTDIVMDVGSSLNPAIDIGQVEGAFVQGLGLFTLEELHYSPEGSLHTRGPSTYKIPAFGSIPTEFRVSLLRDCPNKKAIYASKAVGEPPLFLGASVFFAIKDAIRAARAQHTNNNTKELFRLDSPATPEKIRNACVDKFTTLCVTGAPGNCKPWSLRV

For C=C(C)CC1NC2CC(C)(C)C1c1c(-c3cccnc3)cccc12 (racemic) [Compound 12d, (±)-(1S,4R,9S)-3,3-Dimethyl-9-(2-methylallyl)-5-(pyridin-3-yl)-1,2,3,4-tetrahydro-1,4-(epimino-methano)naphthalene], the “Nox2 inhibitory activity” value ([1]; Table 2) was “inactive”, the IC50 ([1]; whole COS-Nox2 cells stimulated with 5 μM PMA, Amplex Red) was greater than 100 µM and the IC50 [2] was greater than 100 µM.
c1ccc2c(c1)[I+]c1ccccc1-2 [DPI, reference compound] was tested, and the “Effect on ROS production by xanthine oxidase” value [3] was “complete inhibition”.
